# According to ChEMBL document CHEMBL3867430, “Novel 3,4-seco bile acid diamides as selective anticancer proliferation and migration agents” (Eur J Med Chem, 2016):
# Active and inactive are the calls of the source. The calls are words filed in the database; no cut-off is given here.
# How the values were obtained:
# PC-3M [1] = assay: Inhibition of colony formation in human PC3M cells at 10 uM after 7 days by crystal violet staining based assay; type: functional, cell-based
# PC-3M [2] = assay: Induction of apoptosis in human PC3M cells assessed as early apoptotic cells at 5 uM after 48 hrs by annexin V-FITC/propidium iodide staining based flow cytometry (reference value: 31.94%); type: functional
# [3] = Cell cycle arrest in human PC3M cells assessed as accumulation at G1 phase at 2.5 uM after 24 hrs by propidium iodide staining based flow cytometry (reference value: 56.82%); type: functional; conditions: PC-3M
# PC-3M [4] = assay: Induction of apoptosis in human PC3M cells assessed as early apoptotic cells at 2.5 uM after 48 hrs by annexin V-FITC/propidium iodide staining based flow cytometry (reference value: 31.94%); type: functional
# [5] = Antiproliferative activity against human PC3M cells after 48 hrs by SRB assay; type: functional, cell-based; conditions: PC-3M
# [6] = Cell cycle arrest in human PC3M cells assessed as accumulation at G1 phase after 24 hrs by propidium iodide staining based flow cytometry; type: functional; conditions: PC-3M
# [7] = Cell cycle arrest in human PC3M cells assessed as reduction in S phase at 2.5 to 20 uM after 24 hrs by propidium iodide staining based flow cytometry; type: functional; conditions: PC-3M
# [8] = Cell cycle arrest in human PC3M cells assessed as accumulation at G1 phase at 20 uM after 24 hrs by propidium iodide staining based flow cytometry (reference value: 56.82%); type: functional; conditions: PC-3M
# [9] = Selectivity index, ratio of IC50 for HAF cells to IC50 for human ES2 cells; type: functional
# PC-3M [10] = assay: Induction of apoptosis in human PC3M cells assessed as late apoptotic cells at 5 uM after 24 hrs by annexin V-FITC/propidium iodide staining based flow cytometry (reference value: 0.97%); type: functional
# [11] = Antimigratory activity against human PC3M cells at 20 uM after 12 hrs by crystal violet staining based transwell migration assay; type: functional, PC-3M
# PC-3M [12] = assay: Induction of apoptosis in human PC3M cells assessed as late apoptotic cells at 2.5 uM after 24 hrs by annexin V-FITC/propidium iodide staining based flow cytometry (reference value: 0.97%); type: functional
# PC-3M [13] = assay: Induction of apoptosis in human PC3M cells assessed as early apoptotic cells at 10 uM after 24 hrs by annexin V-FITC/propidium iodide staining based flow cytometry (reference value: 15.20%); type: functional
# PC-3M [14] = assay: Induction of apoptosis in human PC3M cells assessed as late apoptotic cells at 20 uM after 24 hrs by annexin V-FITC/propidium iodide staining based flow cytometry (reference value: 0.97%); type: functional
# [15] = Cell cycle arrest in human PC3M cells assessed as accumulation at G1 phase at 5 uM after 24 hrs by propidium iodide staining based flow cytometry (reference value: 56.82%); type: functional; conditions: PC-3M
# PC-3M [16] = assay: Induction of apoptosis in human PC3M cells assessed as late apoptotic cells at 10 uM after 48 hrs by annexin V-FITC/propidium iodide staining based flow cytometry (reference value: 0.32%); type: functional
# PC-3M [17] = assay: Induction of apoptosis in human PC3M cells assessed as early apoptotic cells at 2.5 uM after 24 hrs by annexin V-FITC/propidium iodide staining based flow cytometry (reference value: 15.20%); type: functional
# [18] = Cell cycle arrest in human PC3M cells assessed as accumulation at G1 phase at 10 uM after 24 hrs by propidium iodide staining based flow cytometry (reference value: 56.82%); type: functional; conditions: PC-3M
# PC-3M [19] = assay: Induction of apoptosis in human PC3M cells assessed as early apoptotic cells at 20 uM after 24 hrs by annexin V-FITC/propidium iodide staining based flow cytometry (reference value: 15.20%); type: functional
# PC-3M [20] = assay: Induction of apoptosis in human PC3M cells assessed as early apoptotic cells at 5 uM after 24 hrs by annexin V-FITC/propidium iodide staining based flow cytometry (reference value: 15.20%); type: functional
# PC-3M [21] = assay: Induction of apoptosis in human PC3M cells assessed as late apoptotic cells at 2.5 uM after 48 hrs by annexin V-FITC/propidium iodide staining based flow cytometry (reference value: 0.32%); type: functional
# PC-3M [22] = assay: Inhibition of colony formation in human PC3M cells after 7 days by crystal violet staining based assay; type: functional, cell-based
# [23] = Antimigratory activity against human PC3M cells at 2.5 uM after 12 hrs by crystal violet staining based transwell migration assay relative to control; type: functional, PC-3M
# [24] = Antiproliferative activity against human ES2 cells after 48 hrs by SRB assay; type: functional, cell-based; conditions: ES-2, 48 h
# PC-3M [25] = assay: Induction of apoptosis in human PC3M cells assessed as early apoptotic cells at 20 uM after 48 hrs by annexin V-FITC/propidium iodide staining based flow cytometry (reference value: 31.94%); type: functional
# [26] = Selectivity index, ratio of IC50 for HAF cells to IC50 for human HT-29 cells; type: functional
# [27] = Selectivity index, ratio of IC50 for HAF cells to IC50 for human PC3M cells; type: functional
# [28] = Antiproliferative activity against HAF cells after 48 hrs by SRB assay; type: cell-based; conditions: Homo sapiens
# PC-3M [29] = assay: Antimigratory activity against human PC3M cells after 12 hrs by crystal violet staining based transwell migration assay; type: functional, cell-based
# PC-3M [30] = assay: Induction of apoptosis in human PC3M cells assessed as late apoptotic cells at 10 uM after 24 hrs by annexin V-FITC/propidium iodide staining based flow cytometry (reference value: 0.97%); type: functional
# PC-3M [31] = assay: Induction of apoptosis in human PC3M cells assessed as early apoptotic cells at 10 uM after 48 hrs by annexin V-FITC/propidium iodide staining based flow cytometry (reference value: 31.94%); type: functional
# PC-3M [32] = assay: Induction of apoptosis in human PC3M cells assessed as late apoptotic cells at 20 uM after 48 hrs by annexin V-FITC/propidium iodide staining based flow cytometry (reference value: 0.32%); type: functional
# [33] = Inhibition of colony formation in human PC3M cells at 5 uM after 7 days by crystal violet staining based assay; type: functional; conditions: PC-3M, 168 h
# [34] = Antiproliferative activity against human HT-29 cells after 48 hrs by SRB assay; type: functional, cell-based; conditions: HT-29, 48 h
# PC-3M [35] = assay: Induction of apoptosis in human PC3M cells assessed as late apoptotic cells at 5 uM after 48 hrs by annexin V-FITC/propidium iodide staining based flow cytometry (reference value: 0.32%); type: functional
smiles,measurement,setting,value
C=C(C)C1CC[C@H]2[C@@H]3CC[C@H]([C@H](C)CCC(=O)N4CCNCC4)[C@@]3(C)CC[C@@H]2[C@@]1(C)CCC(=O)N1CCNCC1 (stereo not given in full),inhibition,PC-3M [1],Active
same,Activity,PC-3M [2],30.18%
same,Activity,[3],58.4%
same,Activity,PC-3M [4],30.07%
same,IC50,[5],1.07 µM
same,Activity,[6],Dose-dependent effect
same,Activity,[7],Active
same,Activity,[8],79%
same,Ratio IC50,[9],7.3
same,Activity,PC-3M [10],0.87%
same,Activity,[11],100%
same,Activity,PC-3M [12],0.61%
same,Activity,PC-3M [13],14.66%
same,Activity,PC-3M [14],0.9%
same,Activity,[15],66.3%
same,Activity,PC-3M [16],0.79%
same,Activity,PC-3M [17],15.36%
same,Activity,[18],69%
same,Activity,PC-3M [19],14.5%
same,Activity,PC-3M [20],13.78%
same,Activity,PC-3M [21],0.44%
same,inhibition,PC-3M [22],Dose-dependent effect
same,Activity,[23],50%
same,IC50,[24],3.86 µM
same,Activity,PC-3M [25],22.72%
same,Ratio IC50,[26],6.1
same,Ratio IC50,[27],26.3
same,IC50,[28],28.1 µM
same,Activity,PC-3M [29],Dose-dependent effect
same,Activity,PC-3M [30],0.6%
same,Activity,PC-3M [31],29.52%
same,Activity,PC-3M [32],1.31%
same,inhibition at 5 µM,[33],70%
same,IC50,[34],4.58 µM
same,Activity,PC-3M [35],0.48%
